Measurements: patent US8481551B2, “Gyrase and topoisomerase IV inhibitors” (Vertex Pharmaceuticals Incorporated, priority 2011, dated 2013)
Where a name gives a salt, the structure may show the parent alone.

Tests used:
Escherichia coli = assay: Gyrase MIC against Gram negatives, microdilution broth method (Protocol 2); format: cell-based
Prevotella spp. = assay: Gyrase MIC, agar dilution method (Protocol 3); format: cell-based; conditions: 13 isolates tested
Bacillus cereus = assay: Gyrase MIC, microdilution broth method (Protocol 1); format: cell-based
N. asteroids = assay: MIC determination procedure for Mycobacterium species (Protocol 4); format: cell-based; conditions: N. asteroids 2039
Haemophilus influenzae = assay: Gyrase MIC against Gram negatives, microdilution broth method (Protocol 2); format: cell-based
S. aureus (ATCC 29213) = assay: Neutropenic rat thigh infection model; format: in vivo, Sprague Dawley rats
Text: Animals: Specific-pathogen-free, male Sprague Dawley rats weighing between 76 to 100 grams were obtained from Charles River Laboratories, Inc. (Wilmington, Mass.) and utilized in this experiment. Animals were allowed to acclimate for a minimum of seven (7) days before study commencement. Bacteria: The methicillin-sensitive Staphylococcus aureus(MSSA) ATCC strain 29213 was utilized for in vivo experimentation. The test isolate was subcultured twice onto standard microbiological agar media (trypticase soy agar with 5% sheep blood). The second transfer was made less than 24 hours before use in the preparation of the thigh infection model inoculum. Neutropenic Rat Thigh Infection Model: To induce neutropenia, rats were treated with the immunosuppressant cyclophosphamide at 150 mg/kg, administered in 1 ml by intraperitoneal (IP) injection, three day prior to infection. Rats were infected by an intramuscular (IM) 0.2 ml injection into both rear thighs with a 10^7 cfu/ml methicillin-sensitive Staphylococcus aureus 29213 suspension in normal saline. After increasing amounts of time (2-26 hours) the two rear thighs of each animal were harvested, rinsed with sterile saline, weighed, then placed in 50 ml sterile normal saline and placed on wet ice until homogenization. Approximately one-half of the total homogenized sample volume was passed through a large pore filter (to remove cartilage and large clumped pieces of tissue), diluted in saline and cultured onto agar media plates (trypticase soy agar with 5% sheep blood). All culture plates were incubated at approximately 37° C. for 18-24 hours. Colony-forming units were enumerated (in cfu/ml of homogenate) and the median for each treatment and control group was calculated. […] The median cfu/ml per group was compared to the initial bacterial density at 2 hours (Early Control) or that of the time-matched vehicle control group (Late Control; LC) group harvested simultaneously. […] After 2 hours a single group of rats (Early Control (EC) was euthanized and the thighs harvested, homogenized and plated to quantitate S. aureus burdens. The additional infected rats were treated by oral gavage with Vehicle at 10 ml/kg (20% Cavitron/1% HPMCAS-MG; […] The 8-hour treatment groups received a single treatment (QD) and were euthanized and thighs collected for cfu determination 8 hours post treatment (QD), while the 24-hour treatment groups received 2 doses 12 hours apart (q12 h) and were euthanized and thighs collected 24 hours post treatment. […] After 2 hours a single group of rats (Early Control (EC)) was euthanized and the thighs harvested, homogenized and plated to quantitate S. aureus burdens. The additional infected rats were treated by oral gavage with Vehicle at 10 ml/kg (10% Vitamin E/TPGS; […] The 8-hour treatment groups received a single treatment (QD) and were euthanized and thighs collected for cfu determination 8 hours post treatment (QD), while the 24 hour treatment groups received 2 doses 12 hours apart (q12 h) and were euthanized and thighs collected 24 hours post treatment.

Moraxella catarrhalis = assay: Gyrase MIC against Gram negatives, microdilution broth method (Protocol 2); format: cell-based
Proteus mirabilis = assay: as above; format: cell-based; conditions: 12 isolates tested
[1] = Haemophilus influenzae, 55 isolates tested
[2] = 8 hours after the first dose, 10 mg/kg oral
[3] = 8 hours after the first dose, 60 mg/kg oral
[4] = 8 hours after the first dose, 100 mg/kg oral
[5] = Table 9: 10 mg/kg oral, QD, 8 Hours
[6] = Table 9: 10 mg/kg oral, q12 h, 24 Hours
[7] = Table 9: 60 mg/kg oral, QD, 8 Hours
[8] = Table 9: 60 mg/kg oral, q12 h, 24 Hours
[9] = Table 9: 100 mg/kg oral, QD, 8 Hours
[10] = Table 9: 100 mg/kg oral, q12 h, 24 Hours
[11] = Moraxella catarrhalis, 26 isolates tested

Compound: CCNC(=O)Nc1nc2cc(-c3cnc(C(C)(C)O)nc3)cc([C@H]3CCCO3)c2[nH]1 [Compound 13, methanesulfonic acid salt of 1-ethyl-3-[5-[2-(1-hydroxy-1-methyl-ethyl)pyrimidin-5-yl]-7-[(2R)-tetrahydrofuran-2-yl]-1H-benzimidazol-2-yl]urea]
- MIC90 (Escherichia coli; 12 isolates tested): > 8 µg/mL
- MIC (Escherichia coli; ATCC25922, Escherichia coli ATCC 25922): 16 µg/mL
- MIC (Escherichia coli; Escherichia coli AG100 WT): > 16 µg/mL
- MIC (Escherichia coli; Escherichia coli AG100 tolC): 0.11 µg/mL
- MIC (Escherichia coli; Escherichia coli CHE30): > 16 µg/mL
- MIC (Escherichia coli; Escherichia coli CHE30 tolC): 0.5 µg/mL
- MIC (Escherichia coli; Escherichia coli MC4100): > 16 µg/mL
- MIC (Escherichia coli; Escherichia coli MC4100 tolC): 1 µg/mL
- MIC90 (Prevotella spp.): > 16 µg/mL
- MIC (Bacillus cereus; ATCC10987, Bacillus cereus ATCC 10987): 0.5 µg/mL
- MIC (Bacillus cereus; ATCC14579, Bacillus cereus ATCC 14579): 0.5 µg/mL
- MIC (N. asteroids): 8 µg/mL
- MIC (Haemophilus influenzae; ATCC49247, Haemophilus influenzae ATCC 49247): 1 µg/mL
- MIC (Haemophilus influenzae; Haemophilus influenzae Rd0894 (AcrA-)): 0.14 µg/mL
- MIC90 (Haemophilus influenzae; [1]): 2 µg/mL
- MIC Range (Haemophilus influenzae; [1]): 0.25 to 8 µg/mL
- bacterial growth compared to early control (S. aureus (ATCC 29213); [2]): held the bacterial growth of SA 29213 to at least the point of stasis
- log reduction in burdens compared to time-matched control (S. aureus (ATCC 29213); [2]): ~1.5 log
- decrease of bacterial burden versus early control (S. aureus (ATCC 29213); [3]): ~0.4 logs
- log reduction in burdens compared to time-matched control (S. aureus (ATCC 29213); [3]): ~1.7 log
- decrease of bacterial burden versus early control (S. aureus (ATCC 29213); [4]): ~0.5 logs
- log reduction in burdens compared to time-matched control (S. aureus (ATCC 29213); [4]): 1.8 log
- decrease in bacterial density compared to early control (S. aureus (ATCC 29213); 24 hours, second dose at 12 hours, 60 and 100 mg/kg): approximately 1 log
- reduction of bacterial density compared to late control (S. aureus (ATCC 29213); 24 hours, 10 mg/kg treatment group): ~1.1 log
- cfu levels greater than the early control (S. aureus (ATCC 29213); 24 hours, 30 mg/kg (so in the source), did not appear effective): 0.3 logs
- reduction of bacterial density compared to late control (S. aureus (ATCC 29213); 24 hours, 60 mg/kg): 2.85 logs
- reduction of bacterial density compared to late control (S. aureus (ATCC 29213); 24 hours, 100 mg/kg): ~3 logs
- Median Thigh Burden (Log cfu/mL) (S. aureus (ATCC 29213); Table 9: 10 mg/kg oral gavage, single treatment (QD), 8 Hours): 5.15 Log cfu/mL
- Median Thigh Burden (Log cfu/mL) (S. aureus (ATCC 29213); Table 9: 10 mg/kg oral, 2 doses 12 hours apart (q12 h), 24 Hours): 6.02 Log cfu/mL
- Log Difference vs. Early Control (S. aureus (ATCC 29213); [5]): −0.15
- Log Difference vs. Late Control (8-hour) (S. aureus (ATCC 29213); [5]): −1.49
- Log Difference vs. Early Control (S. aureus (ATCC 29213); [6]): 0.72
- Log Difference vs. Late Control (24-hour) (S. aureus (ATCC 29213); [6]): −1.14
- Log Difference vs. Early Control (S. aureus (ATCC 29213); [7]): −0.35
- Log Difference vs. Late Control (8-hour) (S. aureus (ATCC 29213); [7]): −1.69
- Median Thigh Burden (Log cfu/mL) (S. aureus (ATCC 29213); [7]): 4.95 Log cfu/mL
- Log Difference vs. Early Control (S. aureus (ATCC 29213); [8]): −0.99
- Log Difference vs. Late Control (24-hour) (S. aureus (ATCC 29213); [8]): −2.85
- Median Thigh Burden (Log cfu/mL) (S. aureus (ATCC 29213); [8]): 4.31 Log cfu/mL
- Log Difference vs. Early Control (S. aureus (ATCC 29213); [9]): −0.48
- Log Difference vs. Late Control (8-hour) (S. aureus (ATCC 29213); [9]): −1.82
- Median Thigh Burden (Log cfu/mL) (S. aureus (ATCC 29213); [9]): 4.82 Log cfu/mL
- Log Difference vs. Early Control (S. aureus (ATCC 29213); [10]): −1.13
- Log Difference vs. Late Control (24-hour) (S. aureus (ATCC 29213); [10]): −2.99
- Median Thigh Burden (Log cfu/mL) (S. aureus (ATCC 29213); [10]): 4.17 Log cfu/mL
- MIC (Moraxella catarrhalis; ATCC25238, Moraxella catarrhalis ATCC 25238): 0.071 µg/mL
- MIC (Moraxella catarrhalis; ATCC49143, Moraxella catarrhalis ATCC 49143): 0.04 µg/mL
- MIC90 (Moraxella catarrhalis; [11]): 0.12 µg/mL
- MIC Range (Moraxella catarrhalis; [11]): 0.015 to 0.12 µg/mL
- MIC90 (Proteus mirabilis): > 8 µg/mL
